# Data: patent US10231980B2, “Cortexolone 17alpha-benzoate for use in the treatment of tumours” (COSMO TECHNOLOGIES LTD., priority 2014, dated 2019)
# Like-named read-outs stand apart in the source and are kept apart here.
# Columns and labels:
# MiaPaca2 (AR low) = test: ATP-dependent proliferation assay with 10 nM DHT, pancreatic cancer cells (Examples 3, 4, 7); details: for TI on Resting PBMC: IC50 resting PBMC / IC50 MiaPaca2; for TI on Stimulated PBMC: IC50 stimulated PBMC / IC50 MiaPaca2; for IC50: MiaPaca2
# Procedure: (§1) The experimental method consisted of: • 1. […] After 24 hrs, 10 nM DHT (dihydrotestosterone) with or without anti-androgen compounds, or DMSO vehicle (negative control) was added to the cultures. • 3.
# (§2) Data from Experiment 1 were fitted through sigmoidal dose response curves and analyzed using Prizm statistical analysis software. […] The results from 2 sets of experiments follow.
# (§3) Data from Experiment 1 was fitted through sigmoidal dose response curves and analyzed using Prizm statistical analysis software.
# Panc1 (AR+) = test: as above; details: for TI on Resting PBMC: IC50 resting PBMC / IC50 Panc1; for TI on Stimulated PBMC: IC50 stimulated PBMC / IC50 Panc1; for IC50: Panc1
# Procedure: as §1, §2, §3
# stimulated PBMC [1] = test: IC50 on stimulated (actively dividing) PBMC; type: cell-based, human
# Procedure: (§4) The compound toxicity was determined as follow:
# (§5) Therapeutic Index=Safety/Potency=IC50 stimulated PBMC/IC50 cancer cell
# resting PBMC = test: IC50 on resting (quiescent) PBMC; type: cell-based, human; details: read-out: IC50 on Resting PBMC
# Procedure: The IC50 in PBMCs were tested in 2 different activation status: • stimulated—actively dividing cells • resting—quiescent, non-dividing cells
# The IC50 in PBMCs were tested in 2 different activation status: • Stimulated—actively dividing cells • Resting—quiescent, non-dividing cells.
# IC50 of the compounds was determined on fresh cells isolated from human blood (PBMC).
# HT29 = test: MTT colorimetric assay on epithelial intestinal cancer cells; type: cell-based; details: for Therapeutic Index (TI), Resting PBMC: IC50 resting PBMC / IC50 HT29; for Therapeutic Index (TI), Stimulated PBMC: IC50 stimulated PBMC / IC50 HT29
# Procedure: The experiment was performed to test and define anticancer activity in vitro of Cortexolone 17α-benzoate and cortexolone 17α-valerate, 21-propionate on cell lines representatives of epithelial intestinal tumours, namely HT29. The experiment method consisted in: • 1. Monolayer HT-29 cells were plated in: 96-wells plates at the density of 2×10^4 cells/mL. The cells plated were kept at 37° C. in 5% CO2 and left to attach for 24 h. • 2. […] After 72 h of treatment, the MTT colorimetric assay was performed.
# LNCaP = test: ATP-dependent cell viability assay (Cell Titer Glo), Example 12; details: LNCaP
# From the text: (§6) Data shown in Table I were fitted through sigmoidal dose response curves and analyzed using Prizm statistical.
# MiaPaca2 = test: as above; details: MiaPaca2
# From the text: as §6
# PC3 = test: as above; details: PC3
# From the text: as §6
# Panc1 = test: as above; details: Panc1
# From the text: as §6
# MCF7 = test: In vitro proliferation / cytotoxic assay on breast cancer cells (Examples 14, 25); details: MCF7
# Procedure: as §6
# For the cytotoxic assay, cells were seeded in 96-well flat bottom culture plates in media containing charcoal stripped serum. After 24 hours, test compounds were added to the cells. DMSO was used as the vehicle negative control and RU486 as the positive control. After 72 hour incubation, cells were harvested and lysed to determine cell viability using the Cell Titer Glow assay.
# 7 cancer cell lines = test: Therapeutic index over a panel of cancer cell lines; type: cell-based; details: average over the cancer cell lines of Table VII
# Procedure: as §4, §5
# stimulated PBMC [2] = test: IC50 on stimulated (actively dividing) PBMC; type: cell-based, human; details: PBMC Stim; Table IV
# [3] = Experiment 1, 0 = higher toxicity in PBMC
# [4] = Experiment 1, sigmoidal dose response fit, 10 nM DHT, 3 days
# [5] = Experiment 2, nonlinear regression least squares fit, additional experiments
# [6] = Tables I and II, titrated 3 uM to 200 uM, 3 days
# [7] = read-out: In vitro proliferation IC50, Table IV
structure (smiles),measurement,setting,value
"CCCCC(=O)O[C@]1(C(=O)COC(=O)CC)CC[C@H]2[C@@H]3CCC4=CC(=O)CC[C@]4(C)[C@H]3CC[C@@]21C [CB-03-10, cortexolone 17α-valerate-21-propionate]",TI on Resting PBMC,MiaPaca2 (AR low); [3],3
same,TI on Resting PBMC,MiaPaca2 (AR low); Experiment 2,3
same,TI on Stimulated PBMC,MiaPaca2 (AR low); [3],3
same,TI on Stimulated PBMC,MiaPaca2 (AR low); Experiment 2,3
same,IC50,"MiaPaca2 (AR low); Example 7, Experiment 1",34 µM
same,IC50,"MiaPaca2 (AR low); Example 7, Experiment 2",37 µM
same,IC50,MiaPaca2 (AR low); [4],43 µM
same,IC50,MiaPaca2 (AR low); [5],37 µM
same,TI on Resting PBMC,Panc1 (AR+); [3],2
same,TI on Resting PBMC,Panc1 (AR+); Experiment 2,2
same,TI on Stimulated PBMC,Panc1 (AR+); [3],2
same,TI on Stimulated PBMC,Panc1 (AR+); Experiment 2,2
same,IC50,"Panc1 (AR+); Example 7, Experiment 1",68 µM
same,IC50,"Panc1 (AR+); Example 7, Experiment 2",60 µM
same,IC50,Panc1 (AR+); [4],66 µM
same,IC50,Panc1 (AR+); [5],60 µM
same,IC50,"stimulated PBMC [1]; Example 7, Experiment 1, read-out: IC50 on Stimulated PBMC",106 µM
same,IC50,"stimulated PBMC [1]; Example 7, Experiment 2, read-out: IC50 on Stimulated PBMC",94 µM
same,IC50,"stimulated PBMC [1]; PBMC STIMULATED, Table IV, read-out: In vitro proliferation IC50",94 µM
same,IC50,"resting PBMC; Example 7, Experiment 1",114 µM
same,IC50,"resting PBMC; Example 7, Experiment 2",120 µM
same,Inhibition (%) on HT29,"HT29; 0.8 micromolar, 72 h",0.44%
same,Inhibition (%) on HT29,"HT29; 4 micromolar, 72 h",14.23%
same,Inhibition (%) on HT29,"HT29; 20 micromolar, 72 h",25.49%
same,Inhibition (%) on HT29,"HT29; 100 micromolar, 72 h",89.77%
same,Inhibition (%) on HT29,"HT29; 500 micromolar, 72 h",92.10%
same,IC50,"HT29; HT29, MTT, 72 h, read-out: IC50 Calculated",34.2 µM
same,Therapeutic Index = IC50 resting PBMC/IC50 cancer cell,"HT29; HT29, Table IV",3
same,IC50,"HT29; HT29, Table IV, read-out: In vitro proliferation IC50",34 µM
same,Therapeutic Index = IC50 stimulated PBMC/IC50 cancer cell,"HT29; HT29, Table VII",3
same,"Therapeutic Index (TI), Resting PBMC",HT29; Experiment 1,3
same,"Therapeutic Index (TI), Resting PBMC",HT29; Experiment 2,4
same,"Therapeutic Index (TI), Stimulated PBMC",HT29; Experiment 1,3
same,"Therapeutic Index (TI), Stimulated PBMC",HT29; Experiment 2,3
same,Therapeutic Index = IC50 resting PBMC/IC50 cancer cell,LNCaP; Table IV,9
same,Therapeutic Index = IC50 stimulated PBMC/IC50 cancer cell,LNCaP; Table VII,9
same,IC50,LNCaP; [6],10 µM
same,IC50,LNCaP; [7],10 µM
same,Therapeutic Index = IC50 resting PBMC/IC50 cancer cell,MiaPaca2; Table IV,3
same,Therapeutic Index = IC50 stimulated PBMC/IC50 cancer cell,MiaPaca2; Table VII,3
same,IC50,MiaPaca2; [6],37 µM
same,IC50,MiaPaca2; [7],37 µM
same,Therapeutic Index = IC50 resting PBMC/IC50 cancer cell,PC3; Table IV,2
same,Therapeutic Index = IC50 stimulated PBMC/IC50 cancer cell,PC3; Table VII,2
same,IC50,PC3; [6],53 µM
same,IC50,PC3; [7],53 µM
same,Therapeutic Index = IC50 resting PBMC/IC50 cancer cell,Panc1; Table IV,2
same,Therapeutic Index = IC50 stimulated PBMC/IC50 cancer cell,Panc1; Table VII,2
same,IC50,Panc1; [6],60 µM
same,IC50,Panc1; [7],60 µM
same,Therapeutic Index = IC50 resting PBMC/IC50 cancer cell,MCF7; Table IV,3
same,Therapeutic Index = IC50 stimulated PBMC/IC50 cancer cell,MCF7; Table VII,3
same,IC50,MCF7; [7],28 µM
same,"Therapeutic Index = IC50 stimulated PBMC/IC50 cancer cell, AVERAGE",7 cancer cell lines,4
same,Therapeutic Index = IC50 resting PBMC/IC50 cancer cell,stimulated PBMC [2],1
